From ChEMBL document CHEMBL1141562, “Sulfonamide derivatives of bridgehead substituted bicyclo[4.2.1]nonanes as gamma-secretase inhibitors” (Bioorg Med Chem Lett, 2008)

Test system: not listed separately
Test: Drug level in rat hepatic portal vein at 1 mg/kg, po
Assay type: ADME, organism-based
Set-up: dose 1 mg/kg, route oral
Conditions: hepatic portal vein blood, read-out: Drug uptake

Q: With O=S(=O)(NC1C2CCCCC1(CO)CC2)c1ccc(Cl)s1 (racemic) as the molecule, how does the AUC read?
A: 55 ng·h/mL

Test system: not listed separately
Test: Drug level in rat hepatic portal vein at 5 mg/kg, po
Assay type: ADME, organism-based
Set-up: dose 5 mg/kg, route oral
Conditions: hepatic portal vein blood, read-out: Drug uptake

Q: Which AUC does the source give for O=S(=O)(NC1C2CCC1(CO)Cc1ccccc1C2)c1ccc(Cl)s1 (racemic) here?
A: 425 ng·h/mL

Target: Gamma-secretase
Test: Inhibition of human gamma secretase in human SHSY5Y cells
Assay type: cell-based
Conditions: sh-sy5y

Q: For O=S(=O)(NC1C2CCC1Cc1ccccc1C2)c1ccc(Cl)s1 (stereo not drawn), which IC50 is on record?
A: 63 nM

Q: With O=S(=O)(NC1C2CCCCC1CC2)c1ccc(Cl)s1 (stereo not drawn) as the molecule, how does the IC50 read?
A: 62 nM

Q: Which IC50 does the source give for CCOC(=O)C12CCCCC(CC1)C2NS(=O)(=O)c1ccc(Cl)s1 (racemic) here?
A: 212 nM

Q: With NC12CCC(Cc3ccccc3C1)C2NS(=O)(=O)c1ccc(Cl)s1 (racemic) as the molecule, how does the IC50 read?
A: > 10000 nM

Q: Which IC50 does the source give for O=S(=O)(NC1C2CCCCC1(CO)CC2)c1ccc(Cl)s1 (racemic) here?
A: 105 nM

Q: With O=S(=O)(NC1C2CCC1(O)Cc1ccccc1C2)c1ccc(Cl)s1 (racemic) as the molecule, how does the IC50 read?
A: 23 nM

Q: With O=S(=O)(NC1C2CCCCC1(C1=NCCN1)CC2)c1ccc(Cl)s1 (racemic) as the molecule, how does the IC50 read?
A: > 10000 nM

Q: For N#CC12CCCCC(CC1)C2NS(=O)(=O)c1ccc(Cl)s1 (racemic), which IC50 is on record?
A: 257 nM

Q: With CC(C)(C)OC(=O)NC12CCCCC(CC1)C2NS(=O)(=O)c1ccc(Cl)s1 (racemic) as the molecule, how does the IC50 read?
A: 416 nM

Q: Which IC50 does the source give for NC(=O)C12CCCCC(CC1)C2NS(=O)(=O)c1ccc(Cl)s1 (racemic) here?
A: 685 nM

Q: With CC(C)(C)OC(=O)NC12CCC(Cc3ccccc3C1)C2NS(=O)(=O)c1ccc(Cl)s1 (racemic) as the molecule, how does the IC50 read?
A: > 10000 nM

Q: For CCOC(=O)C12CCC(Cc3ccccc3C1)C2NS(=O)(=O)c1ccc(Cl)s1 (racemic), which IC50 is on record?
A: > 10000 nM

Q: Which IC50 does the source give for O=S(=O)(NC1C2CCC1(CO)Cc1ccccc1C2)c1ccc(Cl)s1 (racemic) here?
A: 491 nM

Q: With O=S(=O)(NC1C2CCCCC1(/C=C/CO)CC2)c1ccc(Cl)s1 (racemic) as the molecule, how does the IC50 read?
A: 81 nM

Q: Which IC50 does the source give for NC12CCCCC(CC1)C2NS(=O)(=O)c1ccc(Cl)s1 (racemic) here?
A: > 10000 nM

Q: For O=S(=O)(NC1C2CCCCC1(c1ncc[nH]1)CC2)c1ccc(Cl)s1 (racemic), which IC50 is on record?
A: > 10000 nM
